Reference: ChEMBL document CHEMBL3046224, “Synthesis of novel 2-phenylsulfonylhydrazono-3-(2',3',4',6'-tetra-O-acetyl-beta-d-glucopyranosyl)thiazolidine-4-ones from thiosemicarbazide precursors” (2006)

Key:
Type in all cases: functional
Conditions in all cases: read-out: GI
Phomopsis asparagi = assay: Fungicidal activity against Phomopsis asparagi assessed as growth inhibition at 50 ppm relative to control
[1] = tested on: Botryosphaeria berengeriana; assay: Fungicidal activity against Botryosphaeria berengeriana assessed as growth inhibition at 50 ppm relative to control
[2] = tested on: Brassica rapa subsp. oleifera; assay: Herbicidal activity against Brassica rapa subsp. oleifera assessed as growth inhibition at 1.5 kg/ha applied to soil relative to control

Row | SMILES | inhibition of growth at 50 ppm (Phomopsis asparagi) [%] | inhibition of growth at 50 ppm [1] [%] | inhibition of growth at 1500 g/ha [2] [%]
1 | CC(=O)OC[C@H]1O[C@@H](NC(=S)NNS(=O)(=O)c2ccc(C)cc2)[C@H](OC(C)=O)[C@@H](OC(C)=O)[C@@H]1OC(C)=O | 30 | 30 | –
2 | CC(=O)OC[C@H]1O[C@@H](N2C(=O)CS/C2=N\NS(=O)(=O)c2ccc(C)cc2)[C@H](OC(C)=O)[C@@H](OC(C)=O)[C@@H]1OC(C)=O | 30 | 30 | 39.8
3 | CC(=O)O[C@@H]1[C@@H](OC(C)=O)[C@H](OC(C)=O)CO[C@H]1NC(=S)NNS(=O)(=O)c1ccccc1 | 30 | 30 | –
